Entries after “also recorded” stand apart in the source; their conditions may differ. Marks after values point to notes of the source that are not given here.
Assays:
Drosophila model of HD = Drosophila model of HD (Steffan 2001); cited from earlier work
[1] = test system: MKP-1, α-globin, β-globin, preproenkephalin mRNA; assay: Northern blotting of brain mRNAs; assay type: in vivo, mouse; conditions: percentage of untreated R6/2, normalized to β-actin
Description: Northern Blotting: Two micrograms of total RNA from brain samples of sodium butyrate-treated and untreated R6/2 and wild type mice (n=4 each) were separated on a 1.2% agarose 3% formaldehyde gel in 1× MOPS buffer, electrophoretically transferred to a nylon membrane (Genescreen Ill.) in 1× TAE, and dried in a standard utility oven at 65 βC. cDNA probes were prepared from IMAGE clones (Research Genetics, _-globin 555069, _-globin 318205, MKP-1 4235972), or cDNAs described in previous studies (enkephalin and _-actin probe sequences) (Luthi-Carter et al., 2002). Hybridizations and washes were conducted as previously described (Luthi-Carter et al. 2002). Blots were quantitated using a Molecular Dynamics Phosphorimager and its accompanying ImageQuant software. Signals for target mRNAs were expressed as ratios to _-actin signals (on the same blot), and the data was analyzed by unpaired two-tailed Student's t-test.

[2] = test system: R6/2 transgenic mouse model of HD; assay: Neuropathological evaluation (brain weight, gross atrophy, striatal neuron area) at 90 days; assay type: in vivo
Description: (§1) Neuropathological Evaluation of Sodium Butyrate Treatment: Beginning at 21 days, R6/2 transgenic mice and wild-type littermate control mice were treated daily with the most optimal dose of sodium butyrate (1.2 g/kg), as determined by survival studies, or PBS intraperitoneal injections. Groups of 10 animals from each treatment paradigm were deeply anesthetized and transcardially perfused with 4% buffered paraformaldehyde at 90 days of age. Forty mice were used for neuropathological analysis, as previously described (Ferrante et al., 2002). Serially cut tissue sections were stained for Nissl substance and immunostained for huntingtin (monoclonal huntingtin antibody, 1:1,000 dilution, Chemicon International Inc.) and for acetylated histone 3 and histone 4 (dilution, 1:1,000, Upstate Biotechnology, Lake Placid, N.Y.), using a previously reported conjugated secondary antibody method in murine brain tissue samples (Ferrante et al., 2002). Specificity for the antisera used in this study was examined in each immunochemical experiment to assist with the interpretation of the results. Preabsorption with excess target proteins, omission of the primary antibodies, and omission of secondary antibodies were performed to determine the amount of background generated from the detection assay.
Stereology/Quantitation: Serial-cut coronal tissue-sections beginning from the most rostral segment of the neostriatum to the level of the anterior commissure (Inter aural 5.34 mm/Bregma 1.54 mm to Inter aural 3.7 mm/Bregma −0.10 mm), were used for huntingtin aggregate analysis. Unbiased stereological counts of huntingtin-positive aggregates ([…]) were obtained from the neostriatum in 10 mice each from sodium butyrate-treated (1.2 g/kg) and PBS-treated R6/2 mice at 90 days using Neurolucida Stereo Investigator software (Microbrightfield, Colchester, Vt.). The total areas of the rostral neostriatum were defined in serial sections in which counting frames were randomly sampled. The optical dissector method was employed estimating the number of huntingtin-positive aggregates. Striatal neuron areas were analyzed by microscopic videocapture using a Windows-based image analysis system for area measurement (Optimas, Bioscan Incorporated, Edmonds, Wash.). The software automatically identifies and measures profiles. All computer identified cell profiles were manually verified as neurons and exported to Microsoft Excel. Cross-sectional areas were analyzed using Statview.

Sp1 = Sp1 acetylation immunoprecipitation and Western blot analysis; assay type: in vivo, mouse; conditions: 1.2 g/kg/day i.p. for two weeks
Description: Sp1 Acetylation Immunoprecipitation and Western Blot Analysis: At 42 days of age, groups (n=6) of R6/2 mice were treated with daily 1.2 g/kg sodium butyrate or PBS intraperitoneal injections for two weeks. The mice were euthanized and tissue lysates were obtained by homogenizing each brain sample with 100 mM Tris (pH 7.4) buffer containing 1% Triton-X 100, 150 mM NaCl, 1 mM sodium orthovanadate, 5 mM sodium fluoride, 3 mM PMSF, 3 mM DTT, 0.5 Êg/ml leupeptin, and 10 Êg/ml aprotinin. To monitor Sp1 acetylation in vivo, tissue lysates were precleared by the addition of 30 Êl of protein A-sepharose (50% v/v slurry) for 1 hr at 4° C. and incubated with 2 Êg of Sp1 antibody for 2-4 hr. Twenty-five Êl of protein A-sepharose was added to lysates and left for 1 hr at […]. All beads were collected by centrifugation and washed twice with lysis buffer and once with PBS. The samples were boiled and divided into equal aliquots before separation on SDS-PAGE. Samples were electrophoresed under reducing conditions on 8% polyacrylamide gels. Proteins were then transferred to nitrocellulose membrane (BioRad, Hercules, Calif.). […] Proteins immunoreactive to acetyl lysine were detected by using an acetyl-lysine specific antibodies (Upstate Biotechnology, Lake Placid, N.Y., 1:1000 dilution). Immunoreactive proteins were detected according to an enhanced chemiluminescent protocol (Amersham, Piscataway, N.J.). […]

[3] = test system: acetylated histone 3 and histone 4; assay: Immunocytochemistry of acetylated H3 and H4 in brain sections; assay type: in vivo, mouse; conditions: 1.2 g/kg/d i.p.; R6/2 mice at 90 days
Description: as §1

SMILES: CCCC(=O)[O-].[Na+] [sodium butyrate]
- photoreceptor neuron degeneration and lethality (Drosophila model of HD): slow photoreceptor neuron degeneration and ameliorate lethality
- Northern, NaBu Txd R6/2 vs R6/2 ([1]; MKP-1 mRNA, Cortex, p<0.0001): 204%^e
- Northern, NaBu Txd R6/2 vs R6/2 ([1]; Preproenkephalin mRNA, Striatum): 98%
- Northern, NaBu Txd R6/2 vs R6/2 ([1]; α-globin mRNA, Cortex, p<0.01): 159%^c
- Northern, NaBu Txd R6/2 vs R6/2 ([1]; β-globin mRNA, Cortex, p<0.001): 206%^d
- brain weight loss ([2]; 1.2 g/kg/d i.p. from 21 days, vs wild type littermates (unsupplemented R6/2: 18.9%)): 5.6%
- striatal neuron area ([2]; 1.2 g/kg/d i.p., Wt 138.9, PBS-treated R6/2 57.1, p<0.01 vs PBS): 113.5 ± 14.2 _m2
- reduction of striatal neuron atrophy ([2]; 1.2 g/kg/d i.p., vs PBS-treated R6/2): one fold
- gross brain atrophy, ventricular hypertrophy ([2]; 1.2 g/kg/d i.p., vs PBS-treated/untreated R6/2): reduced gross brain atrophy and ventricular enlargement; also recorded: ameliorated these gross neuropathological sequelae
- basal levels of Sp1 (Sp1; R6/2 mice): did not change
- Sp1 acetylation levels in brain (Sp1; R6/2 mice vs PBS): increased
- H3 and H4 acetylation immunostaining in brain sections [3]: increased acetylation of histone 4; also recorded: greatly enhanced

From patent US20060069157A1, “Method of ameliorating or abrogating the effects of a neurodegenerative disorder, such as Huntington's disease, by sodium butyrate chemotherapy” (U.S. DEPARTMENT OF VETERANS AFFAIRS, priority 2004, published 2006)
